Experimental findings from PubChem BioAssay AID256 (DTP/NCI, 2004) are described below.

Where “and” joins values, the source holds several entries; their conditions need not be identical. Identical values can stand only once. Inconclusive results and toxic doses are left out.

The experiment deals with CD2F1 mice, L1210 leukemia ip, survival T/C. Nature of the experiment: NCI In Vivo Anticancer Drug Screen. Data for tumor model L1210 Leukemia (intraperitoneal) in CD2F1 (CDF1) mice. As to conditions: endpoint: mean survival time, higher = longer survival. In short, it runs like this:
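In this screen, transplantable tumors were grown in mice given either the compound or its vehicle. Results were expressed as the treated measurement relative to the control measurement.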

Setting [1] is: dose: 100.0 mg/kg/injection, schedule: Q04DX003 (ip), vehicle: saline with Tween-80.
Where [2] appears, read: dose: 50.0 mg/kg/injection, schedule: Q01DX009 (ip), vehicle: saline with Tween-80.
The mark [3] stands for this setting: dose: 100.0 mg/kg/injection, schedule: Q04DX002 (ip), vehicle: saline with Tween-80.
[4] abbreviates: dose: 100.0 mg/kg/injection, schedule: Q04DX003 (ip), vehicle: saline.

As for `O=C1OC(c2ccccc2)(C2(c3ccccc3)OC(=O)c3ccccc32)c2ccccc21` (configuration not stated), the T/C under setting [1] was 89 % of control.
As to `O=c1[nH]c(=O)n(O)c2nc[nH]c12`, the T/C reads like this: (dose: 25.0 mg/kg/injection, schedule: Q01DX009 (ip), vehicle: saline with Tween-80) 102 % of control; under setting [2], 98 % of control.
`CCCCCCCCCCCCCCP(=O)(O)O`: the T/C by setting is: (dose: 75.0 mg/kg/injection, schedule: Q01DX001 (ip), vehicle: other) 92 % of control; (dose: 150.0 mg/kg/injection, schedule: Q01DX001 (ip), vehicle: other) 98 % of control; (dose: 300.0 mg/kg/injection, schedule: Q01DX001 (ip), vehicle: other) 96 % of control.
Consider `CCCC(CN(C)C)C(=O)c1ccccc1` (configuration not stated), for which the T/C under setting [3] is 86 % of control.
In the case of `C#CCOCCC(C(C)=O)C(=O)OCC` (configuration not stated), the T/C is 104 % of control (dose: 100.0 mg/kg/injection, schedule: Q01DX001 (ip), vehicle: saline) and 100 % of control (dose: 200.0 mg/kg/injection, schedule: Q01DX001 (ip), vehicle: saline).
For `c1ccc2c[n+](CCc3c[nH]c4ccccc34)ccc2c1`, the T/C runs as follows: (dose: 25.0 mg/kg/injection, schedule: Q04DX002 (ip), vehicle: other) 100 % of control; (dose: 50.0 mg/kg/injection, schedule: Q04DX002 (ip), vehicle: other) 104 % of control.
In the case of `NCCCNCCNCCCN`, the T/C by setting is: (dose: 25.0 mg/kg/injection, schedule: Q04DX003 (ip), vehicle: saline) 101 % of control; (dose: 50.0 mg/kg/injection, schedule: Q04DX003 (ip), vehicle: saline) 101 % of control; under setting [4], 97 % of control.
For the compound `CC(C)(C)OC(=O)NCCCCC(N)C(=O)OC(C)(C)C` (configuration not stated), the T/C is 96 % of control under setting [4] and 93 % of control (dose: 200.0 mg/kg/injection, schedule: Q04DX003 (ip), vehicle: saline).
On to `NC(=S)S`, for which the T/C reads like this: under setting [3], 102 % of control; (dose: 200.0 mg/kg/injection, schedule: Q04DX002 (ip), vehicle: saline with Tween-80) 113 % of control; (dose: 400.0 mg/kg/injection, schedule: Q04DX002 (ip), vehicle: saline with Tween-80) 102 % of control.
With `CCOC(=O)C1=C(C)NC(C)=C(C(=O)OCC)C1c1ccccc1`, the T/C is, setting by setting: under setting [2], 98 % of control; (dose: 50.0 mg/kg/injection, schedule: Q04DX003 (ip), vehicle: saline with Tween-80) 97 % of control; (dose: 100.0 mg/kg/injection, schedule: Q01DX009 (ip), vehicle: saline with Tween-80) 102 % of control; under setting [1], 97 % of control and 100 % of control; (dose: 200.0 mg/kg/injection, schedule: Q01DX009 (ip), vehicle: saline with Tween-80) 102 % of control; (dose: 200.0 mg/kg/injection, schedule: Q04DX003 (ip), vehicle: saline with Tween-80) 90 % of control and 96 % of control. The T/C (dose: 400.0 mg/kg/injection, schedule: Q04DX003 (ip), vehicle: saline with Tween-80) is 103 % of control.
As to `C=C(Br)CNC(=O)C(=O)OCC`, the T/C under setting [1] was 105 % of control.
